Tests used:
CK1α = target: T1, CK1α (Homo sapiens, UniProt P48729+Q96SW2); test: Western blot, degradation of substrate protein in hPBMCs; assay type: cell-based; conditions: Western blot, 24 hours of compound treatment, compounds tested at 50 nM and 500 nM (concentration for the table not stated)
T1 construct: effects of the compounds of the present disclosure on the expression of target proteins in cells; endogenous in cells; host or cells: human PBMCs (Milecell Biotechnologies)

IKZF1 = target: T2, IKZF1 (Homo sapiens, UniProt Q13422+Q96SW2); test: as above; assay type: cell-based; conditions: Western blot, 24 hours of compound treatment, compounds tested at 50 nM and 500 nM (concentration for the table not stated)
T2 construct: effects of the compounds of the present disclosure on the expression of target proteins in cells; endogenous in cells; host or cells: human PBMCs (Milecell Biotechnologies)

IKZF2 = target: T3, IKZF2 (Homo sapiens, UniProt Q96SW2+Q9UKS7); test: as above; assay type: cell-based; conditions: Western blot, 24 hours of compound treatment, compounds tested at 50 nM and 500 nM (concentration for the table not stated)
T3 construct: effects of the compounds of the present disclosure on the expression of target proteins in cells; endogenous in cells; host or cells: human PBMCs (Milecell Biotechnologies)

IKZF3 = target: T4, IKZF3 (Homo sapiens, UniProt Q96SW2+Q9UKT9); test: as above; assay type: cell-based; conditions: Western blot, 24 hours of compound treatment, compounds tested at 50 nM and 500 nM (concentration for the table not stated)
T4 construct: effects of the compounds of the present disclosure on the expression of target proteins in cells; endogenous in cells; host or cells: human PBMCs (Milecell Biotechnologies)

WEE1 = target: T5, WEE1 (Homo sapiens, UniProt P30291+Q96SW2); test: as above; assay type: cell-based; conditions: Western blot, 24 hours of compound treatment, compounds tested at 50 nM and 500 nM (concentration for the table not stated)
T5 construct: effects of the compounds of the present disclosure on the expression of target proteins in cells; endogenous in cells; host or cells: human PBMCs (Milecell Biotechnologies)

GSPT1 = test: as above; assay type: cell-based, Human; conditions: Western blot, 24 hours of compound treatment, compounds tested at 50 nM and 500 nM (concentration for the table not stated)
[1] = target: T6, human Cereblon WT GST-tagged protein (Homo sapiens, UniProt Q96SW2); test: CRBN-binding affinity, HTRF (CEREBLON BINDING kit); conditions: for inhibition at 0.5 µM: read-out: Inhibition Rate at 0.5 µM (%); for inhibition at 2 µM: read-out: Inhibition Rate at 2 µM (%)
T6 construct: purchased CISBIO 64BDCRBNPEH

[2] = system: Human multiple myeloma cell (MM.1S); test: Tumor cell proliferation inhibition (CellTiter-Meiluncell luminescent cell viability assay); conditions: Homo sapiens, MM1.S, 96 h; for inhibition at 0.01 µM: read-out: Inhibition Rate at 10 nM (%); for inhibition at 0.5 µM: read-out: Inhibition Rate at 500 nM (%)
[3] = system: Human multiple myeloma peripheral blood B lymphocyte cell (RPMI-8226); test: as above; conditions: RPMI-8226, 96 h; for inhibition at 0.01 µM: read-out: Inhibition Rate at 10 nM (%); for inhibition at 0.5 µM: read-out: Inhibition Rate at 500 nM (%)
[4] = system: Human acute T lymphocytic leukemia cell (Molt4); test: as above; conditions: MOLT-4, 96 h; for inhibition at 0.01 µM: read-out: Inhibition Rate at 10 nM (%); for inhibition at 0.5 µM: read-out: Inhibition Rate at 500 nM (%)
Experimental: (§1) The tumor cells used herein were cultured in a cell culture medium listed in table 2 at 37°C in an incubator with 5% CO2. Prior to experimentation, all cell lines used were correctly identified by STR profiling, and tested negative for mycoplasma contamination using a mycoplasma detection kit through routine screenings.
(§2) The IC50 values of the compounds of the present disclosure (including the compounds in Table 1 and Examples) were determined using the CellTiter-Meiluncell Luminescent Cell Viability Assay Kit from Dalian Meilun Biotech Co., Ltd. The detailed procedure is as follows: Tumor cells were seeded in 96-well cell culture plates at the densities specified in Table 3. On the following day, the test compounds of the present disclosure were subjected to serial dilution. The dilution can be performed according to one of the following two methods: • (1) The first dilution method: The test compounds of the present disclosure (including the compounds in Table 1 and Examples) were subjected to 5-fold serial dilutions starting from a highest concentration of 2000 µM, resulting in a total of 9 concentrations from high to low (2000, 400, 80, 16, 3.2, 0.64, 0.128, 0.0256, 0.00512 µM). Subsequently, 0.5 µL of the test compound dilution was transferred into the 96-well plate containing the cells, with each well containing 100 µL of cell culture medium. […] Into the 96-well plate, the diluted test compounds and corresponding detection reagents were added, resulting in final test compound concentrations of 500 nM and 10 nM, respectively. The experimental procedure is described below using the diluted 2 µM test compound as an example.
(§3) 0.5 µL of the aforementioned diluted compound of the present disclosure (including the compounds in Table 1 and Examples) was added to the seeded cells in 100 µL of medium, yielding a final test compound concentration of 10 nM. After the cells were treated with the compounds of the present disclosure for a specified period, the cell viability assay reagent was added to the culture medium according to the kit's instructions to determine cell viability. […] All controls were treated using the same procedure as the compounds of the present disclosure. The growth inhibition curves for the compounds of the present disclosure were plotted using Prism GraphPad software, and the IC50 values were calculated therefrom.

[5] = system: Human myeloid monocytic leukemia cell (MV-4-11); test: as above; conditions: MV4-11, 96 h; for inhibition at 0.01 µM: read-out: Inhibition Rate at 10 nM (%); for inhibition at 0.5 µM: read-out: Inhibition Rate at 500 nM (%)
[6] = system: Human breast cancer cell (MCF-7); test: as above; conditions: MCF7, 96 h; for inhibition at 0.5 µM: read-out: Inhibition Rate at 500 nM (%)
Experimental: as §1, §2, §3

[7] = system: Human acute myeloid leukemia cell line: Kasumi-1; test: as above; conditions: Kasumi 1, 96 h; for inhibition at 0.01 µM: read-out: Inhibition Rate at 10 nM (%); for inhibition at 0.5 µM: read-out: Inhibition Rate at 500 nM (%)
[8] = system: Human T lymphocytic leukemia cell line: Jurkat; test: as above; conditions: 96 h
Experimental: as §1, §2, §3

[9] = read-out: Inhibition Rate at 10 nM (%)

T3 sequence (Q9UKS7 whole entry): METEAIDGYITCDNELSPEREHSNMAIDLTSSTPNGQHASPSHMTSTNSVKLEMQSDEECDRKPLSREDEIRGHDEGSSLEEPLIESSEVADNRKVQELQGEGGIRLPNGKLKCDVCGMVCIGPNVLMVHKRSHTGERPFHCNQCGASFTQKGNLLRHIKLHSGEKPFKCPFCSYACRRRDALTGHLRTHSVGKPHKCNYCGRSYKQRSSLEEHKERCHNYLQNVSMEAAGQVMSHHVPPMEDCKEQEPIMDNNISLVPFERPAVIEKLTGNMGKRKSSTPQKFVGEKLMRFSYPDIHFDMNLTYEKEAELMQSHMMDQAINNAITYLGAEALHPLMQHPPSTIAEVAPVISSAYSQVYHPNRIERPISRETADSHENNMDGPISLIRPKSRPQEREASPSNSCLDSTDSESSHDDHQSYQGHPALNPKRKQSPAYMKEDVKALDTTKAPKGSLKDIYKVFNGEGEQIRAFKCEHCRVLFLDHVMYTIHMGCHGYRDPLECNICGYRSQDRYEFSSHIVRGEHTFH
T3 sequence (Q96SW2 whole entry): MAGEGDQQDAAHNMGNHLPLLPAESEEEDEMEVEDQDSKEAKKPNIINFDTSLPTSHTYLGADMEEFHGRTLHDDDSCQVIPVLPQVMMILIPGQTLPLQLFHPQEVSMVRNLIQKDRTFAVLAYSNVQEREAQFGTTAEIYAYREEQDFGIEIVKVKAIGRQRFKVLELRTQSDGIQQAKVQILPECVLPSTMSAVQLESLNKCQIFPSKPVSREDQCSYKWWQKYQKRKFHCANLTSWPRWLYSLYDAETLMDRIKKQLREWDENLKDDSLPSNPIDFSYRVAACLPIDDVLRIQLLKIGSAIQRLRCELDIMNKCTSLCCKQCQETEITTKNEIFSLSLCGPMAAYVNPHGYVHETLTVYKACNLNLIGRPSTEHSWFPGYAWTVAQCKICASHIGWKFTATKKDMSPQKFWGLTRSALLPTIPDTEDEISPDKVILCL
T3 sequence (Q16531 whole entry partner): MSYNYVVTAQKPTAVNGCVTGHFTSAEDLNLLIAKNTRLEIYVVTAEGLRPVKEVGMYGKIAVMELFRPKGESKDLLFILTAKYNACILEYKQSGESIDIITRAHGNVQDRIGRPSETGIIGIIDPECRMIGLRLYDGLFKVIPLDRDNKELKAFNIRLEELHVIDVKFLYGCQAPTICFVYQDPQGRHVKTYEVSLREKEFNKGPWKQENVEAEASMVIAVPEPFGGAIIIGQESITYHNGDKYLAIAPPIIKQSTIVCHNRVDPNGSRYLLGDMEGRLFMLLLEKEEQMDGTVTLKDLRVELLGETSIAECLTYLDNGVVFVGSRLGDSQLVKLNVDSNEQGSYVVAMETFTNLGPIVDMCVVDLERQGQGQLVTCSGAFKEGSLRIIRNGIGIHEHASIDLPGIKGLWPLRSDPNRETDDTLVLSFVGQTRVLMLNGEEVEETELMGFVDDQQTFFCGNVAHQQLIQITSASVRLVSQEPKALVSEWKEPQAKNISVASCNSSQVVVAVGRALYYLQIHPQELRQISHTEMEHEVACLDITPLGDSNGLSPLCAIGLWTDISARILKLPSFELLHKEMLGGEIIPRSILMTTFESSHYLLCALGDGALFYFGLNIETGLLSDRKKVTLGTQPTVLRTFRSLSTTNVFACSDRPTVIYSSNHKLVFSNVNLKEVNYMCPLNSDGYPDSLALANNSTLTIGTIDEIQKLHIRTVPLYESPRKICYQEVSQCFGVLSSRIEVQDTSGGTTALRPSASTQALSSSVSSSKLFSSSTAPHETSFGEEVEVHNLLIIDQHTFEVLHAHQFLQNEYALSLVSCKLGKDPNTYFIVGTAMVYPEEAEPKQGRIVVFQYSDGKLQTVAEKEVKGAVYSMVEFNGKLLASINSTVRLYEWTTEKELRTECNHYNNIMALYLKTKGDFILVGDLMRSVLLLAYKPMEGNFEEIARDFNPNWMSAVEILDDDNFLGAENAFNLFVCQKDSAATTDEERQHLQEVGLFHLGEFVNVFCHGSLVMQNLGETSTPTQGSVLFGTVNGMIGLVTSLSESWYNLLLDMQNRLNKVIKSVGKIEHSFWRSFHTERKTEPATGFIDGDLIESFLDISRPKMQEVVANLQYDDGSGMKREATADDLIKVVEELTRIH
T6 sequence (Q96SW2 whole entry): as the sequence (Q96SW2 whole entry) above
T4 sequence (Q9UKT9 whole entry): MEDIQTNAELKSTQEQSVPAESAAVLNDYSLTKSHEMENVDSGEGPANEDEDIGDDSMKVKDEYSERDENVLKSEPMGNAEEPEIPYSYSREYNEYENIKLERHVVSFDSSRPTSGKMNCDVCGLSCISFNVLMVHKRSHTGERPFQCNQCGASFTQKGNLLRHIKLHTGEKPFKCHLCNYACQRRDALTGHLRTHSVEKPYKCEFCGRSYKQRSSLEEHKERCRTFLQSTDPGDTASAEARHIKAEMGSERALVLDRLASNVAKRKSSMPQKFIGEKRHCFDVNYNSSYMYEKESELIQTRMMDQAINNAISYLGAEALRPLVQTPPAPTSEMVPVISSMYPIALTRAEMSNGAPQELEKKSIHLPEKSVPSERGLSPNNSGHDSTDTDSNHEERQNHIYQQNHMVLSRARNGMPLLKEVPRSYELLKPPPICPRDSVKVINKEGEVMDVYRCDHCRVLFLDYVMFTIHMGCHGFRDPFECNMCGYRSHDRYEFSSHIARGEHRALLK
T4 sequence (Q96SW2 whole entry): as the sequence (Q96SW2 whole entry) above
T4 sequence (Q16531 whole entry partner): as the sequence (Q16531 whole entry partner) above
T2 sequence (Q13422 whole entry): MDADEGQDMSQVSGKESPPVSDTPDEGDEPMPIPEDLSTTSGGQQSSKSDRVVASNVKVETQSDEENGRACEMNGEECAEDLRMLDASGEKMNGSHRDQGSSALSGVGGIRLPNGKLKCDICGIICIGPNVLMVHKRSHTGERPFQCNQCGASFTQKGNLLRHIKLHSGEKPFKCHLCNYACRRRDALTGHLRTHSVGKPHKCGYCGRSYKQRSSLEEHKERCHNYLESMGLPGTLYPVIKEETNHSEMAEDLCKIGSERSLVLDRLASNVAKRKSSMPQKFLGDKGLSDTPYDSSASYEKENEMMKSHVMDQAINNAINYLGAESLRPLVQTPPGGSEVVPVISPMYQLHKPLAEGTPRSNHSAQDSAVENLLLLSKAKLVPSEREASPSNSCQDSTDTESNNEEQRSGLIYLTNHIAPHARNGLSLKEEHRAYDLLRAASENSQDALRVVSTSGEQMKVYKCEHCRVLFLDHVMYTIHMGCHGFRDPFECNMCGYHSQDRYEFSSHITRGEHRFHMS
T2 sequence (Q96SW2 whole entry): as the sequence (Q96SW2 whole entry) above
T2 sequence (Q16531 whole entry partner): as the sequence (Q16531 whole entry partner) above
T1 sequence (P48729 whole entry): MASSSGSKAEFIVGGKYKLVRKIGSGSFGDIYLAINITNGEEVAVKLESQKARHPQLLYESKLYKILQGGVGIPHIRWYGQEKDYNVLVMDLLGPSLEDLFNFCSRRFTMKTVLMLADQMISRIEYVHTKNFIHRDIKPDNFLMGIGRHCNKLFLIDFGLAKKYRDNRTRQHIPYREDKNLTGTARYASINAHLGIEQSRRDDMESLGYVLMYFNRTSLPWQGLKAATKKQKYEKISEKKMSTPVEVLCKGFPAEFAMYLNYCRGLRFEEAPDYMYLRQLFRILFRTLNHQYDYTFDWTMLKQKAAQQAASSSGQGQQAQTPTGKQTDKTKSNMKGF
T1 sequence (Q96SW2 whole entry): as the sequence (Q96SW2 whole entry) above
T1 sequence (Q16531 whole entry partner): as the sequence (Q16531 whole entry partner) above
T5 sequence (P30291 whole entry): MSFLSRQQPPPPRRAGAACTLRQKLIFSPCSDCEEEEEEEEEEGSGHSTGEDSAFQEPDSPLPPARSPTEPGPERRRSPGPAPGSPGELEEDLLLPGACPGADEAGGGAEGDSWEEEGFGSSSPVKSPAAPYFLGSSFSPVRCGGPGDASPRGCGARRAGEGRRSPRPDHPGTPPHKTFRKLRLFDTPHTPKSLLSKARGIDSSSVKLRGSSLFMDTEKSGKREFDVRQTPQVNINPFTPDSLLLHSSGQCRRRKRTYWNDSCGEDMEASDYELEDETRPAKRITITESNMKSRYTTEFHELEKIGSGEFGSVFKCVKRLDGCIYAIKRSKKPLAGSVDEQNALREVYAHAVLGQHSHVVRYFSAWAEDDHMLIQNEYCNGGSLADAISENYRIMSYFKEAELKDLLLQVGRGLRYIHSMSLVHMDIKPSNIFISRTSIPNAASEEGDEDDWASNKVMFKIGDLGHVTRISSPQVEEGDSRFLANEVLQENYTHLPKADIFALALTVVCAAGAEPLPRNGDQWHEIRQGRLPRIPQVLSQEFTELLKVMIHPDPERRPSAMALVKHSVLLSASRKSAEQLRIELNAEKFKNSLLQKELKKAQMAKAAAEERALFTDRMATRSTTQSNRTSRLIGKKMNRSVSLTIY
T5 sequence (Q96SW2 whole entry): as the sequence (Q96SW2 whole entry) above
T5 sequence (Q16531 whole entry partner): as the sequence (Q16531 whole entry partner) above

| SMILES | CK1α substrate protein remaining % (CK1α) | IKZF 1 substrate protein remaining % (IKZF1) | IKZF2 substrate protein remaining % (IKZF2) | IKZF3 substrate protein remaining % (IKZF3) | Wee1 substrate protein remaining % (WEE1) | GSPT1 substrate protein remaining % (GSPT1) | inhibition at 0.5 µM [1] [%] | inhibition at 2 µM [1] [%] | inhibition at 0.01 µM [2] [%] | inhibition at 0.5 µM [2] [%] | inhibition at 0.01 µM [3] [%] | inhibition at 0.5 µM [3] [%] | inhibition at 0.01 µM [4] [%] | inhibition at 0.5 µM [4] [%] | inhibition at 0.01 µM [5] [%] | inhibition at 0.5 µM [5] [%] | inhibition at 0.5 µM [6] [%] | inhibition at 0.01 µM [7] [%] | inhibition at 0.5 µM [7] [%] | also measured |
| --- | --- | --- | --- | --- | --- | --- | --- | --- | --- | --- | --- | --- | --- | --- | --- | --- | --- | --- | --- | --- |
| O=C1CCC(N2Cc3cc(CN4CC=C(c5cncc(Cl)c5Cl)CC4)ccc3C2=S)C(=O)N1 (stereo not shown) [GT-08489, 3-(5-((4,5-dichloro-3',6'-dihydro-[3,4'-bipyridin]-1'(2'H)-yl)methyl)-1-thioxoisoindolin-2-yl)piperidine-2,6-dione] | B (80%< substrate protein remaining %≤ 100%) | B (80%< substrate protein remaining %≤ 100%) | A (0% ≤ substrate protein remaining % ≤ 80%) | A (0% ≤ substrate protein remaining % ≤ 80%) | A (0% ≤ substrate protein remaining % ≤ 80%) | A (0% ≤ substrate protein remaining % ≤ 80%) | 60 to 80 | 80 to 100 | 10 to 20 | 80 to 100 | 0 to 5 | 70 to 80 | 0 to 5 | 80 to 100 | 30 to 40 | 80 to 100 | 50 to 60 | – | – | – |
| O=C1CCC(N2Cc3cc(CN4CC=C(c5ncccc5F)CC4)ccc3C2=S)C(=O)N1 (stereo not shown) [GT-08491, 3-(5-((3-fluoro-3',6'-dihydro-[2,4'-bipyridin]-1'(2'H)-yl)methyl)-1-thioxoisoindolin-2-yl)piperidine-2,6-dione] | B (80%< substrate protein remaining %≤ 100%) | B (80%< substrate protein remaining %≤ 100%) | B (80%< substrate protein remaining %≤ 100%) | B (80%< substrate protein remaining %≤ 100%) | A (0% ≤ substrate protein remaining % ≤ 80%) | A (0% ≤ substrate protein remaining % ≤ 80%) | 80 to 100 | 80 to 100 | 10 to 20 | 80 to 100 | 10 to 20 | 70 to 80 | 20 to 30 | 80 to 100 | 18 to 25 | 80 to 100 | 40 to 50 | – | – | – |
| O=C1CCC(N2Cc3c(CN4CCN(c5ccc(Cl)cc5)CC4)cccc3C2=S)C(=O)N1 (stereo not shown) [GT-08266, 3-(4-((4-(4-chlorophenyl)piperazin-1-yl)methyl)-1-thioxoisoindolin-2-yl)piperidine-2,6-dione] | B (80%< substrate protein remaining %≤ 100%) | B (80%< substrate protein remaining %≤ 100%) | B (80%< substrate protein remaining %≤ 100%) | B (80%< substrate protein remaining %≤ 100%) | A (0% ≤ substrate protein remaining % ≤ 80%) | A (0% ≤ substrate protein remaining % ≤ 80%) | 30 to 40 | 60 to 80 | 40 to 50 | 50 to 60 | – | – | – | – | 60 to 80 | 80 to 100 | 40 to 50 | 50 to 60 | 50 to 60 | inhibition at 0.01 µM [6, 9]: 40 to 50% |
| O=C1CCC(N2Cc3c(CN4CCN(c5cccc(F)c5)CC4)cccc3C2=S)C(=O)N1 (stereo not shown) [GT-08263, 3-(4-((4-(3-fluorophenyl)piperazin-1-yl)methyl)-1-thioxoisoindolin-2-yl)piperidine-2,6-dione] | A (0% ≤ substrate protein remaining % ≤ 80%) | B (80%< substrate protein remaining %≤ 100%) | B (80%< substrate protein remaining %≤ 100%) | B (80%< substrate protein remaining %≤ 100%) | A (0% ≤ substrate protein remaining % ≤ 80%) | A (0% ≤ substrate protein remaining % ≤ 80%) | 53 to 60 | 80 to 100 | – | – | – | – | – | – | 60 to 80 | 80 to 100 | – | 50 to 60 | 60 to 70 | inhibition at 0.01 µM [8, 9]: 20 to 30%; inhibition at 0.5 µM ([8]; read-out: Inhibition Rate at 500 nM (%)): 30 to 40% |

From patent EP4745135A1 (Gluetacs Therapeutics (Shanghai) Co., Ltd., priority 2023, dated 2025)
